Measurements taken from US20100249019A1, “USE OF A PEPTIDE AS A THERAPEUTIC AGENT” (priority 2007, published 2010).
No end group written: not given here.

Tests used:
[1] = tested on: HCMV strain AD169; test: HCMV plaque formation assay in MRC-5 cells; conditions: 10 micrograms per ml, 7-10 days
[2] = tested on: Primary Human endothelial cells (HUVEC); test: Endothelial cell migration assay; type: cell-based; conditions: 10 micrograms per ml; 22 hours
[3] = tested on: murine spleen cells; test: Th1/Th2 cytokine profiling assay (Ovalbumin-restimulated spleen cells, CBA kit); type: cell-based, Balb/c mice; conditions: 10 micrograms per ml; 72 hours
From the text: The Balb/c mice (originated in 1923, it is a popular strain and is used in many different research disciplines. Also classified as an inbred from the production of 20 or more successive brother-sister matings, the Balb/c mouse is albino and small in size) were immunized on Days 1, 15, and 29 with Ovalbumin (Ovalbumin is the main protein found in egg white, commonly used to stimulate an immunological reaction in test animals) in PBS (5 micrograms/injection). On day 50, spleens of the mice were harvested (3 weeks after last boost with Ovalbumin). […] Thereafter, additional Ovalbumin was added to the cells at 10 micrograms/ml for in vitro restimulation of the cells. 72 hours later, cell supernatants were harvested and assayed using the Becton Dickinson Mouse Th1/Th2 Cytokine CBA Kit.

[4] = tested on: RAW 264.7 cells; test: Phagocytosis assay (Fluorescein-labeled Escherichia coli, flow cytometry); conditions: 10 micrograms per ml; 30 min preincubation, 60 min ingestion
[5] = tested on: HUVEC; test: Endothelial tube formation assay; type: cell-based, human; conditions: 10 micrograms per ml; 20 hours
Method: The endothelial tube formation assay is based on the ability of endothelial cells to form three-dimensional capillary-like tubular structures when cultured on a gel of basement membrane extract. The endothelial tube formation assay represents a powerful model for studying inhibition and induction of angiogenesis. Pre-labeled HUVEC with Calcein AM were seeded in a 96-well culture plate coated with extracellular metrix (Chemicon international Cat. ECM625) and treated with test peptides—10 micrograms per ml—in full growth medium. Positive control wes vehicle only. The endothelial cells were allowed to form tubes foe 20 hours and were then examined under an inverted fluorescent microscope. Duplicate wells for each treatment were photographed and quantitatevily analyzed for an average tubule length using image analysis software ImageProPlus. Raw data were expressed as average tubule lengths in pixels±standard deviation. Statistic p values were computed using the Student's t-test.

[6] = tested on: hepatitis B virus (HBV) ayw strain; test: HBV experimental assay system (HepG2-2.2.15, TaqMan PCR of HBV DNA); type: cell-based; conditions: 10 micrograms per ml; six days; HBV DNA vs virus control

For “Val-Pro-Leu-Pro-Ala-Gly-Gly-Gly-Thr-Val-Leu-Thr-Lys-Met-Tyr-Pro-Arg-Gly-Asn-His-Trp-Ala-Val-Gly-His-Leu-Met-NH2 (VPLPAGGGTVLTKMYPRGNHWAVGHLM-NH2) [Peptide 2, Gastrin Releasing Peptide; GRP, commercially available known peptide]”, the “inhibition of HCMV plaque formation as compared to the virus control” value [1] was 4.0%, the “inhibition of the migration of human endothelial cells” value [2] was 26% and the “change of the production of IFN-γ” value [3] was “did not significantly change”. For the same substance, the “change of the production of IL-2” value [3] was “did not significantly change”, the “change of the production of IL-4” value [3] was “did not significantly change” and the “change of the production of TNF-alpha” value [3] was “did not significantly change”. For the same substance, the “decrease of the production of IL-5” value [3] was 34.0%, the “induction of the production of IL-2” value [3] was 67.3% and the “induction of phagocytosis as compared to control” value [4] was 42.9%. The “inhibition of the tube formation of human endothelial cells” value [5] was “do not inhibit” and the “inhibition of HBV replication on tested liver cells” value [6] was 30.6%.
